“Also recorded” adds a separate entry of the source. Numbered stars: 1 amine (or outer) side, 2 acyl side, 3 side chain; on linkers, the order of the positions; unused ones are H or OH. Bridge positions count the residues as written; N and C are the ends. Square brackets hold non-standard residues; d marks the D form. Peptide text beside a SMILES is read from it. I, II: the chains in the order shown. Actinocin(9to1) = Cc1c2oc3c(C)ccc(C(=O)[*:1])c3nc-2c(C(=O)[*:2])c(N)c1=O; NMeV = CN[C@H](C(=O)O)C(C)C; Sar = CNCC(=O)O
Assays:
[1] = test system: axon degeneration of DRG neurons following NGF withdrawal; assay: Campenot chamber localized axon degeneration after NGF withdrawal (Tuj1 immunostaining); type: cell-based, mouse; details: for axon degeneration due to NGF deprivation, inhibitor applied to the axon (axon inhibition): inhibitor in axon compartment, 28 hours NGF deprivation of axons, anti-NGF antibody 50 μg/ml; for axon degeneration due to NGF deprivation, inhibitor applied to the cell body (cell body inhibition): inhibitor in cell body compartment with 25 ng/ml NGF, axons deprived of NGF
Procedure: Campenot chambers were used to perform the following experiments which allow for the separation of somal and axonal environments, and permit the induction of localized degeneration (see FIG. 1 and, e.g., Zweifel et al., Nat. Rev. Neurosci. 6(8):615-625, 2005). In such chambers, axon degeneration is localized and proceeds without apoptosis.
Mouse laminin (5 μg/ml in sterile filtered water; Invitrogen) was added to PDL coated 35 mm dishes (BD Biosciences) and they were incubated for 1 hour at 37° C., followed by two rinses in SQ water. The dishes were vacuum-dried and then air-dried in a laminar flow hood for 15 minutes. Prepared dishes were then scored with a pin rake (Tyler Research). Fifty microliters of NBM+MC solution containing NGF was applied across the resulting score tracks. The NBM+MC solution was made as follows: 1750 mg of methylcellulose was combined with 480 ml of Neurobasal (Invitrogen), to which was added 4.5 ml penicillin/streptomycin, 7.5 ml L-glutamine, and 10 ml B-27 serum-free supplement (Invitrogen). The solution was mixed for one hour at room temperature, overnight at 4° C., and one further hour at room temperature. The solution was then filter sterilized, and 50 ng/ml NGF (Roche) was added prior to use. High vacuum grease (VWR) was added to each Teflon divider under a dissection scope. The laminin coated PDL dishes were inverted and dropped onto the Teflon divider, with additional pressure added by use of a toothpick in the non-track-containing regions. Dishes were incubated for 1 hour at 37° C. Five hundred microliters of NBM+MC (50 ng/ml NGF) solution was added to each of the side compartments, and a grease barrier was added in front of the center cell slot.
Free E13.5 spinal cords were dissected from mouse embryos and placed into NBM+MC (25 ng/ml NGF) solution. DRGs were detached from the spinal cord with a tungsten needle. An NBM+MC-lubricated P200 pipette was used to move DRGs into a 1.5 ml tube. DRGs were pelleted with a tabletop centrifuge for 30 seconds. The supernatant was discarded and 0.05% Trypsin/EDTA (cold) was added. The pellet was resolubilized with a pipette and incubated at 37° C. for 15 minutes with constant agitation (650 RPM). The sample was again centrifuged and the supernatant discarded. The pellet was resuspended in warm NBM+MC (50 ng/ml NGF) solution and triturated with a flamed glass pipette 20 times, followed by trituration with a fire-bored glass pipette another 20 times. The samples were again centrifuged and the resulting pellets were resuspended in 0.5 ml NBM+MC (50 ng/ml NGF) solution. The cells were diluted to a final concentration of 2.5×10^6 cells/ml. The cell suspensions were loaded into a 1 ml syringe with a 22 gauge needle. The center slot of the Campenot divider was filled using the syringe (to a volume of at least 50 μl). The Campenot chamber was incubated overnight at 37° C. 2.5 ml NGF+MC (50 ng/ml NGF) solution was added to the center compartment and the grease gate was removed. The outer medium (cell body compartment) was replaced after three days with 2.5 ml NBM+MC medium (with 25 ng/ml NGF).
After five days in culture, the axonal compartment was washed three times with warmed NBM+MC (no NGF) solution. After the third wash, 500 μl NBM+MC (no NGF) solution was added to the axon compartment in combination with either 0.5% DMSO or an inhibitor. The cell body compartment was replaced with 2.5 ml NBM+MC medium (with 25 ng/ml NGF) containing either 0.5% DMSO or inhibitor. Fifty μg/ml anti-NGF antibody was added to the axonal compartment. Another axon compartment was maintained in NGF as a control.
After 28 hours of NGF deprivation for axons, and 25 hours of NGF deprivation for cell bodies, 8% PFA/30% sucrose solution was added directly to the culture medium at a 1:1 dilution and incubated for 30 minutes. The Teflon divider was removed after the first 15 minutes of addition. […]

[2] = test system: dleu2 and tbx6 expression; assay: Time course microarray analysis of neurons in Campenot chambers undergoing axon loss; type: cell-based, mouse; details: 30 μM inhibitor in outer compartment, NGF deprivation for 6 and 12 hours
Procedure: Based on the experiments described above, glycogen synthase kinase-3 (GSK-3) was identified as being a regulator of a genetic axon degeneration program acting specifically in the cell body to regulate distal axon degeneration. To identify GSK3 regulated axon degeneration genes, time course microarray analysis was performed on neurons selectively undergoing […], with or without GSK-3 inhibition.
Briefly, neurons were isolated and cultured in Campenot chambers as previously described. Campenot chambers were set up with 50 μM 5-fluoro-2′-deoxyuridine/uridine (both Sigma) added to the culture medium to reduce contamination by non-neuronal cells. On day 5, both axon compartments were washed three times with NGF-free medium and on the fourth wash, replaced with medium containing NGF (control) or NGF antibodies (50 μg/ml) (911, Genetech). The outer compartment was replaced with medium containing 30 μM of the GSK3 inhibitor ARA (EMD Biosciences) or 0.3% DMSO. RNA was extracted from neurons with or without GSK3 ARA treatment which had been cultured with NGF or deprived of NGF for 6 and 12 hours. RNA was prepared with Trizol® (Invitrogen) followed by the RNeasy® Micro Kit processing with DNAse I treatment (Qiagen) as described in Appendix C of the RNeasy® Micro Kit manual. For each condition, five Agilent Whole Mouse Genome microarray chips were used with single amplification.

SMILES	axon degeneration due to NGF deprivation, inhibitor applied to the axon (axon inhibition) [1]	axon degeneration due to NGF deprivation, inhibitor applied to the cell body (cell body inhibition) [1]	axon degeneration due to NGF deprivation, inhibitor applied to the axon (axon inhibition) ([1]; listed as actinomycin D)	axon degeneration due to NGF deprivation, inhibitor applied to the cell body (cell body inhibition) ([1]; listed as actinomycin D)	overexpression of dleu2 and tbx6 in neurons deprived of NGF [2]	overexpression of dleu2 and tbx6 in neurons deprived of NGF ([2]; listed as GSK3.ARA)
N#C/C(=C\c1ccc(O)c(O)c1)C(=O)NCCCc1ccccc1 [AG555]	exhibited less degeneration; also recorded: prevented axonal degradation	failed to prevent degeneration; also recorded: did not provide the same protective effect				
Cc1c2oc3c(C)ccc(C(=O)N[C@@H]4C(=O)N[C@H](C(C)C)C(=O)N5CCC[C@H]5C(=O)N(C)CC(=O)N(C)[C@@H](C(C)C)C(=O)O[C@@H]4C)c3nc-2c(C(=O)N[C@@H]2C(=O)N[C@H](C(C)C)C(=O)N3CCC[C@H]3C(=O)N(C)CC(=O)N(C)[C@@H](C(C)C)C(=O)O[C@@H]2C)c(N)c1=O [Act D, actinomycin D] (I: T[dV]P[Sar][NMeV] / II: T[dV]P[Sar][NMeV]; ester I:1-I:C, II:1-II:C; linker I:N-II:N via Actinocin(9to1))	did not prevent axonal degradation	axon degradation due to NGF deprivation was reduced	did not provide the same protective effect	prevented axonal degeneration		
COc1ccc(CNC(=O)Nc2ncc([N+](=O)[O-])s2)cc1 [GSK3 ARA]					overexpression of these genes is not observed at any time point	Increased expression of dleu2 and tbx6 is not observed
COc1nccc(-c2c(-c3ccc(F)cc3)ncn2C2CCC(O)CC2)n1 (stereo not drawn) [SB239]	exhibited less degeneration; also recorded: prevented axonal degradation	failed to prevent degeneration; also recorded: did not provide the same protective effect				
O=C1NC(=O)C(c2ccccc2[N+](=O)[O-])=C1Nc1ccc(O)c(Cl)c1 [SB415]	did not prevent axonal degradation; also recorded: did not provide the same protective effect	axon degradation due to NGF deprivation was reduced; also recorded: prevented axonal degeneration				
